Consider 1 substance from US20080070855A1, “Treatment with anti-VEGF agents to prevent postoperative inflammation and angiogenesis in normal and diseased eyes” (priority 2006, published 2008).

The subject of this test is patients with diabetic retinopathy undergoing cataract surgery. The experiment in a line: Intravitreal injection of anti-VEGF compound before cataract surgery in patients with diabetic retinopathy (case reports). Format: in vivo, human. The settings on record: Example 2: diabetic retinopathy; 0.15 cc (3.75 mg) intravitreal, same day prior to cataract surgery. The method, then: The following is an example of a method performed for the intravitreal injection of pharmaceutical compositions containing at least one anti-VEGF compound. Prior to injecting a needle through the sclera, the eyes were massaged to soften the ophthalmic tissue. The next step is to create a bleb in the conjunctiva and move the conjunctiva up from prefere so it covered an area about 3.5 mm from the limbus. Once the conjunctiva is prepared, the needle is inserted through the sclera into the vitreous. A 30 or 31 gauge needle is used. […]
A person underwent cataract surgery in the right eye. […] Refraction of the right eye was measured as −0.25−0.75×170 20/200. […] Refraction of the right eye after one week was measured at −0.25 sph 20/25.
A person with proliferative diabetic retinopathy with a history of pan-photocoagulation underwent cataract surgery of both eyes, however on different dates. Preoperative right eye refraction was measured as pl −0.50×174 20/100. Preoperative left eye refraction was measured as −0.75 sph 20/150. […]
A person with proliferative diabetic retinopathy with a history of pan-photocoagulation underwent cataract surgery of the left eye. Preoperative left eye refraction was measured as plano sph 20/80. […] Six days following cataract surgery refraction of the left eye was measured as plano sph 20/25.

With “Bevacizumab: anti-VEGF humanized monoclonal IgG1 antibody that binds and inhibits VEGF (trade name AVASTIN, Genentech)”, the “Patient condition after one week” value was “doing well”.
